{"source": "patent US6969590B2", "about": "“Use of a polypeptide for treatment of pruritus in animals” (Zengen, Inc., priority 2001, dated 2005)", "key": {"[1]": {"system": "inflammation induced in the ear by picryl chloride", "experiment": "Picryl chloride-induced ear swelling", "type": "in vivo, BALB/C mice", "procedure": "Female BALB/C mice (Simmons Laboratories), 7 weeks old, were housed at 23-25° C. in groups of no more than 5 per cage [28 cm (L)×18 cm (W)×13 cm (H)]. They were allowed to acclimatize to standard lighting and temperature conditions for at least 1 week, with food and water available ad lib, before the experiment began. Five to ten animals were randomly assigned to each treatment group each test day, and all experiments were repeated at least twice to confirm reproducibility. To reduce error due to slight differences in responses to the irritant of animals from different shipments, tests of each agent were performed as separate experiments in which experimental and control animals were drawn from the same shipment.\nIn the experiments each animal was anesthetized with 1 mg of pentobarbital sodium solution (50 mg/kg, Nembutal, Abbott Laboratories, Abbott park, Ill.). Baseline ear thickness was measured for both ears with a spring-loaded micrometer (Swiss Precision Instruments, Los Angeles, Calif.). Ear thickness was expressed in units of 10^−3 cm; the average thickness of unstimulated ears was approximately 25-30×10^−3 cm. After baseline measurements were taken, one of six solutions was injected IP. Control animals received 0.2 ml of sterile saline, and experimental animals received Ac-α-MSH (11-13)-NH2, i.e., Ac-Lys-Pro-Val-NH2), Ac[D-Lys^11] α-MSH (11-13)-NH2, Ac[D-Pro^12] α-MSH (11-13)-NH2, Ac[D-Val^13] α-MSH (11-13)-NH2 or Ac-[D-Lys^11, D-Val^13] α-MSH (11-13)-NH2 in the same volume of saline. […] The doses of the tripeptides were 10 μg ([…]), 20 μg ([…]), 40 μg (1.04×10^−7 M), and 80 μg (2.08×10^−7 M). Immediately after saline or α-MSH injection, a micropipette was used to coat both sides of each ear with 10 μl (40 μl per mouse) of a 0.5% picryl chloride (Polysciences, Warrington, Pa.) solution in acetone.\nEar thickness was remeasured 3 and 6 h after picryl chloride application. Swelling was determined by subtracting baseline thickness from the measurements for each ear at 3 and 6 h. The differences for both ears were then averaged for the final analysis.\nRepeated-measure ANOVA techniques were used to determine if there was an overall difference among group data for each peptide tested in separate experiments. In those cases in which the ANOVA yielded significant results, Dunnett's test was then used to compare the effects of peptide doses with control (saline) data for each of the two time periods, 3 and 6 h."}, "[2]": {"conditions": "kind of activity not given; cited from earlier work"}, "[3]": {"system": "TNF-α and iNOS mRNA", "experiment": "Northern blot of TNF-α and iNOS mRNA in activated microglia", "type": "cell-based, murine", "procedure": "Total cellular RNA was extracted from 10^6 adherent microglial cells plated in six-well tissue culture plates (Corning). Electrophoresis of RNA samples (10 μg/lane) was performed in 1% agarose/2.2 M formaldehyde gels and the gels subsequently blotted onto nylon filters by capillary action and baked for 2 h before prehybridization. The cDNA fragments encoding murine TNF-α and mouse macrophage iNOS were ^32P-labeled using the Ready-To-Go DNA Labeling Kit (Pharmacia, Uppsala, Sweden) before hybridization of nylon filters and autoradiography. Blots were subsequently rehybridized with human glyceraldehyde-3-phosphate dehydrogenase (G-3-PDH) cDNA probe as an internal control (Clontech Laboratories, Inc., Palo Alto, Calif.)."}, "[4]": {"system": "NO2^−", "experiment": "Nitrite (NO) production by activated N9 microglia", "type": "cell-based, murine", "conditions": "microglia stimulated with LPS+IFN-γ for 24 hr, micromolar concentrations", "procedure": "(§1) The N9 clone of murine microglial cells was obtained by immortalization of embryonic brain cultures with the 3RV retrovirus carrying an activated v-myconcogene. N9 cells were cultured in T-75-cm^2 culture flasks (Corning, Cambridge, Mass.) and maintained at 37° C. in a humidified incubator under 5% CO2 atmosphere in RPMI 1640 supplemented with 2 mM L-glutamine, 50 U/mL penicillin G, 50 μg/mL streptomycin sulfate (GIBCO-BBL, Paisley, UK), and 10% heat-inactivated fetal bovine serum (FBS, Hyclone Lab, Inc., Logan, Utah) until experiments were performed. Cells were used between the first and the tenth passage.\n(§2) Sub-confluent microglial cells were washed twice with phosphate-buffered saline (PBS) and incubated with trypsin 0.025% and ethylenediaminetetraacetate (EDTA) 0.02% without calcium and magnesium for 3 min. at 37° C. to detach the cells from the culture flask. Cells were then resuspended in medium and incubated in 24-well tissue-culture plates at a concentration of 2×10^5 cells/mL for 16 h in a humidified incubator (37° C., 5% CO2). Growth medium was removed and cell monolayers were stimulated with 10 ng/mL lipopolysaccharide (LPS, from Escherichia coli 055:B5, Sigma Chemical Co., St. Louis, Mo.) plus 1 U/ml, murine IFN-γ (Sigma). To test effects of melanocortin peptides, concentrations (1, 10, 25, 50 and 100 μM) of α-MSH (1-13), α-MSH (11-13), and ACTH (1-24) (Sigma) were dissolved in medium and added to wells 10 min before treatment with LPS+IFN-γ. […] Viability of cells was assessed by trypan blue exclusion for each experimental condition; it was consistently >98%. […]\nNO is rapidly oxidized to nitrite (NO2) in culture medium, and nitrite concentration is an indicator of NO production. […] Samples were incubated at room temperature for 10 min and absorbency was measured at 540 nm with the use of a microplate reader. Nitrite concentrations were calculated using a sodium nitrite standard curve.\n(§3) Effects of melanocortin peptides on cytokine and NO production were evaluated by repeated measures analysis of variance followed by Dunnet's test for specific comparisons. […]"}, "[5]": {"system": "C. albicans", "experiment": "Horse serum-induced germ tube formation of C. albicans", "type": "cell-based", "conditions": "10^−6M, 60 minutes at 37° C.", "procedure": "C. albicans from stationary phase cultures were washed twice with distilled water and suspended in HBSS to a final concentration of 2×10^6/ml. Hyphal growth was induced by addition of 10% inactivated horse serum (GIBCO/BRL, Great Britain) to yeast incubated for 45 minutes at 37° C. with continuous shaking. Horse serum was removed by washing cells twice with HBSS and incubation was continued for 60 minutes at 37° C. in the presence of α-MSH (1-13), α-MSH (6-13) or α-MSH (11-13) at a concentration of 10^−6M with continuous shaking. The percentage of filamentous cells was evaluated under a light microscope with the aid of hemocytometer. Experiments were run in triplicate and at least 200 cells were scored. Photomicrographs were taken with an MC100 camera attached to an Axioskop Zeiss microscope."}, "[6]": {"system": "C. albicans", "experiment": "C. albicans colony forming units (candidacidal activity)", "type": "cell-based", "procedure": "C. albicans (1×10^6/ml in HBSS) was incubated in the presence or absence or α-MSH (1-13) or α-MSH (11-13) at concentrations in the range of 10^−15 M to 10^−6 M for 2 hours at 37° C. Cells were then washed in cold distilled water and diluted with HBSS to a concentration of 100 organisms/ml. One-ml aliquots were dispensed on blood agar plates and incubated for 48 hours at 37° C. Organism viability was estimated from the number of colonies formed. In subsequent experiments using familiar procedures we compared activity of α-MSH (4-10), α-MSH (6-13), α-MSH (11-13), ACTH (1-39), (18-39) and fluconazole, the latter an established antifungal agent. Melanocortin peptides and fluconazole were tested in concentrations of 10^−6 M to 10^−4 M. There were at least six replicates for each concentration of peptide."}, "[7]": {"system": "human neutrophils", "experiment": "C. albicans killing by human neutrophils", "type": "cell-based", "conditions": "2 hours at 37° C., vs. medium", "procedure": "Venous blood (20 ml) from healthy volunteers was anticoagulated with heparin. Neutrophils were isolated using dextran sedimentation and Ficoll-Hypaque (Sigma Chemical Co., St. Louis, Mi., USA) centrifugation. Erythrocytes were lysed via hypotonic shock. Neutrophils represented at least 97% of the cell suspension. Cell viability, estimated by trypan blue exclusion, was >98%. Neutrophils were suspended to a final concentration in HBSS. C. albicans (1×10^6) were opsonized with human AB serum in a shaking water bath for 30 minutes at 37° C. Organisms were then incubated with neutrophils in medium or in medium with α-MSH (1-13) or α-MSH (11-13) in concentrations of 10^−15 M to 10^−4 M in a shaking water bath for 2 hours at 37° C. After incubation, the culture tubes were placed on ice to stop growth and extracellular organisms were washed twice with centrifugation at 1000×g at 4° C. A 2.5% sodium desoxycholoate solution was added to obtain a suspension of 10^6 cells/ml. Two 1/100 serial dilutions in HBSS were made to obtain a final suspension of 100 cells/ml. Aliquots of 1 ml were dispensed on blood agar plates and incubated for 48 hours at 37° C. Colony forming units (CFUs) were counted at the end of the incubation period. Experiments were run in triplicate and repeated using blood from 5 different donors."}, "[8]": {"system": "cAMP", "experiment": "cAMP accumulation in N9 cells", "type": "cell-based, murine", "conditions": "resting cells and cells incubated with LPS+IFN-γ", "procedure": "cAMP accumulation in N9 cells was measured as previously described. Briefly, cells in six-well plates were co-incubated at 37° C. with (1) medium; (2) forskolin (100 μM); (3) LPS (10 ng/mL)+IFN-γ (1 U/mL); (4) α-MSH (1-13) or α-MSH (11-13) (1, 10, 50 μM); (5) LPS+IFN-γ and either α-MSN (1-13) or α-MSH (11-13) (10 μM). Reactions were stopped after 3 min by aspirating supernatants, immediately adding 1 mL ethanol at −20° C. and freezing. cAMP content in the ethanol-soluble fraction was measured using an enzyme immunoassay kit (Amersham)."}, "[9]": {"system": "TNF-α", "experiment": "TNF-α production by activated N9 microglia", "type": "cell-based, murine", "conditions": "microglia stimulated with LPS+IFN-γ for 24 hr, micromolar concentrations", "procedure": "as §1, §2\n(§4) TNF-α bioactivity was measured in supernatants of cell cultures by standard cytotoxicity assay using L929 cells and recombinant human TNF-α (Sigma) as standard. […] IL-6 was measured using a commercial murine enzyme-linked immunosorbent assay (ELISA: RPN 2714, Amersham, Little Chalfont, UK).\nas §3"}, "[10]": {"system": "IL-6", "experiment": "IL-6 production by activated N9 microglia", "type": "cell-based, murine", "conditions": "microglia stimulated with LPS+IFN-γ for 24 hr, micromolar concentrations", "procedure": "as §1, §2, §4, §3"}, "[11]": {"system": "fever", "conditions": "relative to parent peptide or to the 11-13 sequence; cited from earlier work"}}, "note": "Entries after “also recorded” stand apart in the source; their conditions may differ."}
{"substance": "Ac-[D-Lys^11]α-MSH (11-13)-NH2", "values": [{"measurement": "% Inhibition of swelling", "setting": "[1]; 10 μg IP, 3 h", "result": 23, "unit": "%"}, {"measurement": "% Inhibition of swelling", "setting": "[1]; 10 μg IP, 6 h", "result": 17, "unit": "%"}, {"measurement": "% Inhibition of swelling", "setting": "[1]; 20 μg IP, 3 h", "result": 25, "unit": "%"}, {"measurement": "% Inhibition of swelling", "setting": "[1]; 20 μg IP, 6 h", "result": 16, "unit": "%"}, {"measurement": "% Inhibition of swelling", "setting": "[1]; 40 μg IP, 3 h", "result": 35, "unit": "%"}, {"measurement": "% Inhibition of swelling", "setting": "[1]; 40 μg IP, 6 h", "result": 37, "unit": "%"}, {"measurement": "% Inhibition of swelling", "setting": "[1]; 80 μg IP, 3 h", "result": 34, "unit": "%"}, {"measurement": "% Inhibition of swelling", "setting": "[1]; 80 μg IP, 6 h", "result": 29, "unit": "%"}, {"measurement": "overall effect on ear inflammation (ANOVA)", "setting": "[1]; 10-80 μg IP, 3 and 6 h", "result": "significantly reduced inflammation"}, {"measurement": "general potency relative to L-form tripeptide", "setting": "[2]", "result": "same general potency as the L-form of the tripeptide α-MSH (11-13)"}]}
{"substance": "Lys-Pro-Val (KPV; Designed polypeptide with anti-inflammatory, anti-bacterial, anti-fungal and antipyretic properties.) [α-MSH (11-13), C-terminal tripeptide KPV of α-MSH]", "values": [{"measurement": "mRNA for TNF-α and iNOS (Northern blot)", "setting": "[3]", "result": "inhibition of mRNA transaction for TNF-α and iNOS"}, {"measurement": "reduction of production of NO2^−", "setting": "[4]", "result": 40, "unit": "%"}, {"measurement": "reduction in the number of filamentous cells (inhibition of germination)", "setting": "[5]", "result": "54-58%"}, {"measurement": "relative potency in reducing C. albicans viability", "setting": "[6]; 10^−4M melanocortin peptides", "result": "the most effective"}, {"measurement": "effect on C. albicans colony forming units (CFU)", "setting": "[6]; 2 hours at 37° C., vs. control", "result": "greatly reduced; also recorded: significantly decreased C. albicans colony forming units; also recorded: inhibitory effect"}, {"measurement": "killing of C. albicans by human neutrophils", "setting": "[7]", "result": "enhanced the killing"}, {"measurement": "cAMP accumulation", "setting": "[8]", "result": "increased cAMP accumlation"}, {"measurement": "reduction of production of TNF-α", "setting": "[9]", "result": 45, "unit": "%"}, {"measurement": "reduction of production of IL-6", "setting": "[10]", "result": 50, "unit": "%"}]}
{"substance": "[Nle^4, D-Phe^7]-α-MSH", "values": [{"measurement": "antipyretic potency", "setting": "[11]", "result": "approximately ten times more potent than the parent peptide in reducing fever"}]}
